The text below walks through data of patent US11116848B2, “Selective UV crosslinking of peptides and functional moieties to immunoglobulins” (University of Notre Dame du Lac, priority 2013, dated 2021).

Assay [1] deals with nucleotide binding site (NBS). The settings on record: read-out: previously reported Kd for IBA/NBS interactions; cited from earlier work.
Assay [2] deals with CD20 negative myeloma cell lines, U266, H929, and MM.1S. Put plainly: CD20 antigen detection flow cytometry assay. In kind it is cell-based. The settings on record: conjugate 200 nM, photocrosslinked at 1 J/cm^2; U266, H929, MM.1S. How it is done:
IM9, U266, H929, and MM.1S cell lines were cultured in RPMI 1640 media containing 10% FBS, 2 mM L-glutamine, 100 U/mL penicillin, and 100 μg/mL streptomycin. […] IBA-FITC was photocrosslinked to Rituximab at the indicated UV energies. All cell lines were used at a density of 0.5×10^6 cells/mL in blocking buffer (1.5% BSA in PBS pH 7.4) and initially incubated for 30 min on ice. […] Samples were washed three times and analyzed on a Guava easyCyte 8HT flow cytometer.

For the compound `O=C(O)CCCc1c[nH]c2ccccc12` [IBA, indole-3-butyric acid], in assay [1], the Kd was 1 to 8 µM. With Rituximab-IBA-FITC conjugate, the “binding to CD20 negative cell lines” value in assay [2] was “negligible binding”.
